Experimental findings from patent US7863271B2, “2-aminobenzoxazole carboxamides as 5HT3 modulators” (Albany Molecular Research, Inc., priority 2006, dated 2011) are described below.

Each structure is given as a SMILES string. Structures can show the parent of a compound that is named as a salt.

The target of the assay is T1, 5-HT3 (Homo sapiens, UniProt P46098).
T1 sequence (P46098 24-478): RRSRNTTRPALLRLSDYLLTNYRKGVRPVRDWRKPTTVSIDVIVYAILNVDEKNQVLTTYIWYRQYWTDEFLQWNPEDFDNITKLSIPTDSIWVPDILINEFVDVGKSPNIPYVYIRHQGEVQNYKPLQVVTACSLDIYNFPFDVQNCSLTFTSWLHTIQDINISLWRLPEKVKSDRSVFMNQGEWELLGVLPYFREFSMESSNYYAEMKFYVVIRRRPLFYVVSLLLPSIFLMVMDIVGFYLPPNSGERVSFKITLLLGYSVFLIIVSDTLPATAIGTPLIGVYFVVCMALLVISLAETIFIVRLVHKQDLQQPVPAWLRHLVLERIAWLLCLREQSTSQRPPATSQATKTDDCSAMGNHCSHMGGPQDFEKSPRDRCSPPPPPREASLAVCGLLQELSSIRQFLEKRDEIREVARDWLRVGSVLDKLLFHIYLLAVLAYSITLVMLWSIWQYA
The assay is described as follows: Compound affinity for the human 5-HT3 receptor (Assay B), SPA radioligand binding with [9-methyl-3H]BRL-43694. As to conditions: Assay B (method B unless otherwise annotated); read-out: 5-HT3 Ki. The arrangement: purchased Perkin Elmer. How it is done: Compound Affinity for the human 5-HT3 Receptor (Assay B)
The relative affinity of the various compounds for the human 5-HT3 receptor was measured in a radioligand binding assay, using a scintillation proximity assay (SPA) format. Test compounds were dissolved to 10 mM in 100% DMSO, then serially diluted at 10× assay concentrations in 100% DMSO in 96-well polypropylene plates and further diluted to 4× assay concentrations with the assay buffer. […] Binding reactions were set up in wells of PicoPlates-96 (Perkin Elmer) by adding consecutively 50 μL of each competing compound or buffer, SPA beads, the radioligand and 5-HT3 receptor membranes. After 60-min incubation at room temperature on a Nutator mixer, plates were centrifuged for 15 min at 1,500 rpm, followed by incubation in the dark for 30 min. Radioactivity was counted in the TopCount microplate counter (Perkin Elmer) for 5 min. […] Specific binding was determined by subtracting nonspecific binding from total binding. All experiments were performed in duplicate using ten concentrations of a competing ligand, with ondansetron included as a control in every run. IC50 values were determined from specific binding data using XLfit4.1 curve fitting software from IDBS Ltd. Ki values were then calculated from the Cheng-Prusoff equation.
As a reminder, the Ki is a dissociation constant, usually derived from enzyme kinetics or from competition with a known ligand. Regarding `CN1[C@@H]2CCC[C@H]1C[C@@H](NC(=O)c1cccc3oc(N4CCOCC4c4ccccc4)nc13)C2` (mixture of isomers) [Example 19, Endo-N-(9-Methyl-9-azabicyclo[3.3.1]non-3-yl)-2-(3-phenylmorpholino)benzoxazole-4-carboxamide Hydrochloride], the Ki is 0.017 µM. As to `O=C(NC1CN2CCC1CC2)c1cccc2oc(N3CCOCC3c3ccccc3)nc12` [Example 20, (S)—N-(quinuclidine-8-yl)-2-(3-phenylmorpholino)benzoxazole-4-carboxamide Hydrochloride], the Ki turned out to be 0.0344 µM. Take `CN1[C@@H]2CCC[C@H]1C[C@@H](NC(=O)c1cccc3oc(N4CCn5ccnc5C4)nc13)C2` [Example 79, Endo-N-(9-Methyl-9-azabicyclo[3.3.1]nonan-3-yl)-2-(5,6-dihydroimidazo[1,2-a]pyrazin-7(8H)-yl)benzoxazole-4-carboxamide Hydrochloride]: the inhibitory constant (Ki) is 0.0293 µM. On to `C[C@@H]1CN(c2nc3c(C(=O)N[C@@H]4CN5CCC4CC5)cccc3o2)C[C@H](C)O1` [Example 18, (S)—N-(quinuclidine-8-yl)-2-((2S,6R)-2,6-dimethylmorpholino)benzoxazole-4-carboxamide Hydrochloride], for which the Ki was 0.443 µM.

As to `CCC[C@H]1COCCN1c1nc2c(C(=O)NC3CC4CCCC(C3)N4C)cccc2o1` (stereo partly drawn) [Example 66, Endo-N-(9-Methyl-9-azabicyclo[3.3.1]nonan-3-yl)-2-((S)-3-propylmorpholino)benzoxazole-4-carboxamide Hydrochloride], the Ki was determined as 0.0041 µM. With `CN1[C@@H]2CCC[C@H]1C[C@@H](NC(=O)c1cccc3oc(N4CCC(=O)CC4)nc13)C2` [Example 92, Endo-N-(9-methyl-9-azabicyclo[3.3.1]nonan-3-yl)-2-(4-oxopiperidin-1-yl)benzoxazole-4-carboxamide Hydrochloride] the figure was 0.0212 µM. Under `CN1[C@@H]2CCC[C@H]1C[C@@H](NC(=O)c1cccc3oc(N)nc13)C2` [Example 35, Endo-N-(9-Methyl-9-azabicyclo[3.3.1]non-3-yl)-2-aminobenzoxazole-4-carboxamide Hydrochloride] stands 0.0091 µM. Take `CC1CN(c2nc3c(C(=O)N[C@H]4C[C@H]5CCC[C@@H](C4)N5C)cccc3o2)CCN1` (stereo partly drawn) [Example 95, Endo-N-(9-Methyl-9-azabicyclo[3.3.1]nonan-3-yl)-2-(3-methylpiperazin-1-yl)benzoxazole-4-carboxamide Hydrochloride]: the Ki is 0.0524 µM. As for `O=C(N[C@@H]1CN2CCC1CC2)c1cccc2oc(N3CCOCC3)nc12` [Example 10, (S)—N-(quinuclidine-8-yl)-2-morpholino-benzoxazole-4-carboxamide Hydrochloride], the Ki came to 0.164 µM. Consider `C=CCN1C[C@H](C)N(c2nc3c(C(=O)NC4CC5CCCC(C4)N5C)cccc3o2)C[C@H]1C` (relative stereo) [Example 147, Endo-N-(9-Methyl-9-azabicyclo[3.3.1]nonan-3-yl)-2-((2S*,5R*)-4-allyl-2,5-dimethylpiperazin-1-yl)benzoxazole-4-carboxamide Dihydrochloride], for which the Ki was 0.0108 µM. `CN1C2CCCC1CC(NC(=O)c1cccc3oc(N4CCNC[C@@H]4C(C)(C)C)nc13)C2` (stereo partly drawn) [Example 96, Endo-N-(9-Methyl-9-azabicyclo[3.3.1]nonan-3-yl)-2-((S)-2-tert-butylpiperazin-1-yl)benzoxazole-4-carboxamide Hydrochloride]: the Ki is 0.0075 µM. As for `CN1CCN(c2nc3c(C(=O)N[C@H]4C[C@H]5CCC[C@@H](C4)N5C)cc(Cl)cc3o2)CC1` [Example 58, Endo-N-(9-methyl-9-azabicyclo[3.3.1]nonan-3-yl)-6-chloro-2-(4-methylpiperazin-1-yl)benzoxazole-4-carboxamide Hydrochloride], the Ki worked out at 0.0119 µM. `O=C(N[C@@H]1CN2CCC1CC2)c1cccc2oc(Nc3ccncc3)nc12` [Example 28, (S)—N-(quinuclidine-8-yl)-2-(pyridin-4-ylamino)benzoxazole-4-carboxamide Dihydrochloride]: the Ki was 0.0053 µM. As to `CN(C)c1nc2c(C(=O)N[C@H]3C[C@H]4COC[C@@H](C3)N4C)cccc2o1` [Example 30, Endo-N-(9-methyl-3-oxa-9-azabicyclo[3.3.1]non-7-yl)-2-(dimethylamino)benzoxazole-4-carboxamide Hydrochloride], the Ki was 0.079 µM. `CN1[C@@H]2CCC[C@H]1C[C@@H](NC(=O)c1cccc3oc(N4CCNc5ccccc54)nc13)C2` [Example 29, Endo-N-(9-Methyl-9-azabicyclo[3.3.1]non-3-yl)-2-(3,4-dihydroquinoxaline-1(2H)-yl)benzoxazole-4-carboxamide Dihydrochloride]: the inhibition constant Ki was determined as 0.0036 µM. `CC[C@H]1COCCN1c1nc2c(C(=O)NC3CC4CCCC(C3)N4C)cc(Cl)cc2o1` (stereo partly drawn) [Example 62, Endo-N-(9-Methyl-9-azabicyclo[3.3.1]nonan-3-yl)-6-chloro 2-((S-3-ethylmorpholino)benzoxazole-4-carboxamide Hydrochloride]: the Ki is 0.0063 µM. With `C[C@H]1CN(C(=O)C(C)(C)C)C[C@H](C)N1c1nc2c(C(=O)NC3CC4CCCC(C3)N4C)cccc2o1` (stereo partly drawn) [Example 130, Endo-N-(9-methyl-9-azabicyclo[3.3.1]nonan-3-yl)-2-((2S,6S)-2,6-dimethyl-4-pivaloylpiperazin-1-yl)benzoxazole-4-carboxamide Hydrochloride], the Ki worked out at 0.0028 µM.

As for `CC(C)OC(=O)N1C[C@H](C)N(c2nc3c(C(=O)NC4CC5CCCC(C4)N5C)cccc3o2)[C@@H](C)C1` (stereo partly drawn) [Example 143, Endo-N-(9-methyl-9-azabicyclo[3.3.1]nonan-3-yl)-2-((2S,6S)-4-(isopropoxycarbonyl)-2,6-dimethylpiperazin-1-yl)benzoxazole-4-carboxamide Hydrochloride], the Ki is 0.0014 µM.

As to `COC(=O)N1C[C@H](C)N(c2nc3c(C(=O)NC4CC5CCCC(C4)N5C)cccc3o2)[C@@H](C)C1` (stereo partly drawn) [Example 125, Endo-(3S,5S)-Methyl 3,5-dimethyl-4-(4-(9-methyl-9-azabicyclo[3.3.1]nonan-3-ylcarbamoyl)benzoxazol-2-yl)piperazine-1-carboxylate Hydrochloride], the Ki was 0.0021 µM. Under `CN1[C@@H]2CCC[C@H]1C[C@@H](NC(=O)c1cc(F)cc3oc(N)nc13)C2` [Example 121, Endo-2-amino-6-fluoro-N-(9-Methyl-9-azabicyclo[3.3.1]nonan-3-yl)benzoxazole-4-carboxamide Hydrochloride] stands 0.009 µM; under `CCNc1nc2c(C(=O)NC3CN4CCC3CC4)cccc2o1` [Example 104, (S)—N-(Quinulidin-8-yl)-2-ethylaminobenzoxazole-4-carboxamide Hydrochloride], 0.0135 µM.

With `CN1[C@@H]2CCC[C@H]1C[C@@H](NC(=O)c1cccc3oc(Nc4ccccc4)nc13)C2` [Example 5, Endo-N-(9-Methyl-9-azabicyclo[3.3.1]non-3-yl)-2-(phenylamino)benzoxazole-4-carboxamide Hydrochloride], the Ki was 0.00625 µM. For the molecule `CN(C)CCN(C)c1nc2c(C(=O)N[C@H]3C[C@H]4CCC[C@@H](C3)N4C)cccc2o1` [Example 31, Endo-N-(9-methyl-9-azabicyclo[3.3.1]nonan-3-yl)-2-((2-(dimethylamino)ethyl)(methyl)amino)benzoxazole-4-carboxamide hydrochloride], the Ki is 0.107 µM. With `CN1CCCN(c2nc3c(C(=O)NC4CN5CCC4CC5)cccc3o2)CC1` [Example 12, (S)—N-(quinuclidine-8-yl)-2-(4-methyl-1,4-diazepam-1-yl)benzoxazole-4-carboxamide Dihydrochloride] the figure was 0.317 µM; with `CN1[C@@H]2CCC[C@H]1C[C@@H](NC(=O)c1cccc3oc(N4CCNCC4(C)C)nc13)C2` [Example 102, Endo-N-(9-Methyl-9-azabicyclo[3.3.1]nonan-3-yl)-2-(2,2-dimethylpiperazin-1-yl)benzoxazole-4-carboxamide Hydrochloride], 0.0158 µM; with `C[C@H]1CN(CC(F)(F)F)C[C@H](C)N1c1nc2c(C(=O)NC3CC4CCCC(C3)N4C)cccc2o1` (stereo partly drawn) [Example 137, Endo-N-(9-methyl-9-azabicyclo[3.3.1]nonan-3-yl)-2-((2S,6S)-2,6-dimethyl-4-(2,2,2-trifluoroethyl)piperazin-1-yl)benzoxazole-4-carboxamide Hydrochloride], 0.0018 µM. With `CN1[C@@H]2COC[C@H]1C[C@@H](NC(=O)c1cccc3oc(Nc4ccccc4)nc13)C2` [Example 45, Endo-N-(9-Methyl-3-oxa-9-azabicyclo[3.3.1]nonan-7-yl)-2-(phenylamino)benzoxazole-4-carboxamide Hydrochloride], the Ki was found to be 0.0226 µM.
